Test results reported in patent US8809386B2, “Use of dynamin ring stabilizers” (Children's Medical Research Institute, priority 2009, dated 2014).

Assays:
dynamin = test: Electron microscopy of helical dynamin on PS liposomes; format: biochemical; settings: 5 μM, FIG. 8
Source text: FIGS. 8 (A) to (D) are electron micrographs showing Bis-T-23 prevents constriction or helical expansion of dynamin on PS liposomes in vitro. It stabilizes the dynamin helix, which loses its flexibility and forms uniform diameter rings, inhibiting dynamin ring disassembly.
A characteristic of helical dynamin is that the helix is a highly flexible structure. Upon GTP hydrolysis it is able to rapidly reduce its diameter (constriction) while also expanding in length (helical expansion) (Stowell et al. 1999; Chen et al. 2004; Roux et al. 2006). This is thought to be a potential mechanism utilized for the fission of the necks of newly budded endocytic vesicles in cells (Roux et al. 2006). The highly flexible nature of helical dynamin was confirmed by EM analysis of dynamin bound to phosphatidylserine liposomes in the absence of GTP or GDP (FIG. 8). Dynamin mixed with PS liposomes formed a helix with specific characteristics (FIGS. 8A and C): the individual loops of the helix were highly varied in diameter, formed at different angles relative to the underlying lipid, and the spacing between loops was highly variable. […] Bis-T-23 bound dynamin appeared similar to previous reports of GTPγS-bound dynamin on lipid nanotubes (Stowell et al. 1999).

full length dynamin I = molecular target: T1, full length dynamin I (UniProt Q05193); test: Basal dynamin GTPase activity in the absence of PS liposomes or other template (ring stabilizer activity); format: biochemical, sheep; settings: 0.2 μM dyn1, 7 μM compound, 10 μM Gsn-F-actin complexes, FIG. 18
T1 construct: rows headed: basal rate of GTP hydrolysis of dynamin
T1 sequence (Q05193 1-864): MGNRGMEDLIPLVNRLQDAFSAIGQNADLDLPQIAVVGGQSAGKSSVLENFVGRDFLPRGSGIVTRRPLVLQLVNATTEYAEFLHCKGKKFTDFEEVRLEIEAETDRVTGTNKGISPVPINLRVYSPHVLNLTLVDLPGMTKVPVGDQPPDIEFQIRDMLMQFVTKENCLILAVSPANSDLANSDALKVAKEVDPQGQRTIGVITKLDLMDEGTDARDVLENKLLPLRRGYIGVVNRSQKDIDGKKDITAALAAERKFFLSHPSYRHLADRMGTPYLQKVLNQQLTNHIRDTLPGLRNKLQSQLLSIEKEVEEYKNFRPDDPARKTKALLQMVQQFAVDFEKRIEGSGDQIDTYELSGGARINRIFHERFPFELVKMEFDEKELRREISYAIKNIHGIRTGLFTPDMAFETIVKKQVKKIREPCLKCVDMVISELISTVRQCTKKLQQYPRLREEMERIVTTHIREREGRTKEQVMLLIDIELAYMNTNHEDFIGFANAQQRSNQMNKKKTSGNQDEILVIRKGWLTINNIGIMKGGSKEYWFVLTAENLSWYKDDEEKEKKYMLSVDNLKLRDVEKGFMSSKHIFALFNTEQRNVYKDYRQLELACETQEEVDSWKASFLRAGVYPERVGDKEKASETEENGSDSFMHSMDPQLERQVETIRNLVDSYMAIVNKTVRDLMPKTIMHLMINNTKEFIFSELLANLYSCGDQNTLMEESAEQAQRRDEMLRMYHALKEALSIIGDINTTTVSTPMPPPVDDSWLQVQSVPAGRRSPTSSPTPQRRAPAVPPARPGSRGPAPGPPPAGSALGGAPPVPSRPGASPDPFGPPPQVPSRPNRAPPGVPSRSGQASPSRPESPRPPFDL

In the case of `N#CC(=Cc1cc(O)c(O)c(O)c1)C(=O)NCCCNC(=O)C(C#N)=Cc1cc(O)c(O)c(O)c1` [Bis-T-23, 2-cyano-N-{3-[2-cyano-3-(3,4,5-trihydroxyphenyl)-acryloylamino]-propyl}-3-(3,4,5-trihydroxyphenyl)-acrylamide], the “shape of dynamin helix on PS liposomes” value (dynamin) is reported as “drastically altered the helical shape” and the “basal rate of GTP hydrolysis of dynamin” value (full length dynamin I) is reported as “increased the rate of basal dynamin GTP hydrolysis to a similar level to addition of Gsn-F-actin complexes”.
